# Test results published in patent US10800772B2 (Gilead Sciences, Inc., priority 2016, dated 2020).
# Legend:
# Type in all cases: cell-based, HIV-1
# [1] = test system: HIV-IIIb IN T174I BT; test: Antiviral assay in MT4 cells, HIV-IIIb IN T174I BT virus (from viral breakthrough); conditions: Human immunodeficiency virus 1, IIIB, MT4, 120 h, read-out: T174I BT EC50, MT4 cells, HIV-IIIb IN T174I BT (viral breakthrough), 5 days, CellTiter-Glo
# Experimental: (§1) Antiviral Assay in MT4 Cells
# (§2) For the antiviral assay, 0.4 μL of 189X test concentration of 3-fold serially diluted compound in DMSO was added to 40 μL of cell growth medium (RPMI 1640, 10% FBS, 1% Penicillin-Streptomycin, 1% L-Glutamine, 1% HEPES) in each well of 384-well plate (10 concentrations) in quadruplicate.
# (§3) 1 mL Aliquots of MT4 cells were pre-infected for 3 hours at 37° C. with 25 μL of cell growth medium (mock-infected) or a fresh 1:250 dilution of an HIV-IIIb (wildtype, IN T174I BT, or IN T174I DE) concentrated ABI stock (0.004 m.o.i.). IN T174I BT virus was derived from viral breakthrough (BT) assay as described in Mulato, A.; Hansen, D.; Thielen, A.; Porter, D.; Stepan, G.; White, K.; Daeumer, M.; Cihlar, T.; Yant, S. R. AIDS Research and Human Retrovirues, July 2016, ahead of print. doi:10.1089/aid.2016.0071. IN T174I DE virus was derived from serial passaging with dose escalation (DE) of test compound. Infected and uninfected cells were diluted in cell growth media and 35 μL (2000 cells) was added to each well of the assay plates.
# (§4) Assay plates were then maintained in a humidified, 5% CO2 incubator at 37° C. After 5 days of incubation, 25 μl of 2× concentrated CellTiter-Glo™ Reagent (catalog # G7573, Promega Biosciences, Inc., Madison, Wis.) was added to each well of the assay plate. Cell lysis was carried out by incubating at room temperature for 10 minutes and then chemiluminescence was read using an Envision plate reader (PerkinElmer). EC50 values were calculated as the compound concentration that caused a 50% […] in luminescence signal, a measure of HIV-1 replication.
# [2] = test system: HIV-IIIb IN T174I DE; test: Antiviral assay in MT4 cells, HIV-IIIb IN T174I DE virus (from dose escalation passaging); conditions: Human immunodeficiency virus 1, IIIB, MT4, 120 h, read-out: T174I DE EC50, MT4 cells, HIV-IIIb IN T174I DE (dose escalation), 5 days, CellTiter-Glo
# Experimental: as §1, §2, §3, §4
# [3] = test system: HIV-IIIb (wildtype); test: Antiviral assay in MT4 cells, HIV-IIIb wildtype; conditions: Human immunodeficiency virus 1, IIIB, MT4, 120 h, read-out: WT EC50
# Experimental: as §1, §2, §3, §4
smiles,measurement,setting,value
"CCn1nc(C2CCN(C3CN(C(=O)OC)C3)CC2)c2cc(-c3nc4cc(C)c([C@H](OC(C)(C)C)C(=O)O)c(-c5ccc(Cl)cc5)c4s3)ccc21 [Compound 48, (S)-2-(tert-butoxy)-2-(7-(4-chlorophenyl)-2-(1-ethyl-3-(1-(1-(methoxycarbonyl)azetidin-3-yl)piperidin-4-yl)-1H-indazol-5-yl)-5-methylbenzo[d]thiazol-6-yl)acetic acid]",EC50,[1],70 nM
same,EC50,[2],165 nM
same,EC50,[3],8 nM
"CCn1nc(C2CCN([C@H]3CCN(C(=O)OC)C3)CC2)c2cc(-c3nc4cc(C)c([C@H](OC(C)(C)C)C(=O)O)c(-c5ccc(Cl)cc5)c4s3)ccc21 [Compound 49, (S)-2-(tert-butoxy)-2-(7-(4-chlorophenyl)-2-(1-ethyl-3-(1-((S)-1-(methoxycarbonyl)pyrrolidin-3-yl)piperidin-4-yl)-1H-indazol-5-yl)-5-methylbenzo[d]thiazol-6-yl)acetic acid]",EC50,[1],79 nM
same,EC50,[2],286 nM
same,EC50,[3],4 nM
"CCn1nc(C2CCN([C@@H]3CCN(C(=O)OC)C3)CC2)c2cc(-c3nc4cc(C)c([C@H](OC(C)(C)C)C(=O)O)c(-c5ccc(Cl)cc5)c4s3)ccc21 [Compound 50, (S)-2-(tert-butoxy)-2-(7-(4-chlorophenyl)-2-(1-ethyl-3-(1-((R)-1-(methoxycarbonyl)pyrrolidin-3-yl)piperidin-4-yl)-1H-indazol-5-yl)-5-methylbenzo[d]thiazol-6-yl)acetic Acid]",EC50,[1],74 nM
same,EC50,[2],276 nM
same,EC50,[3],4 nM
"Cc1cc2nc(-c3ccc4c(c3)c(C3=CCOC3)nn4C)sc2c(-c2ccc(Cl)cc2)c1[C@H](OC(C)(C)C)C(=O)O [Compound 51, (S)-2-(tert-butoxy)-2-(7-(4-chlorophenyl)-2-(3-(2,5-dihydrofuran-3-yl)-1-methyl-1H-indazol-5-yl)-5-methylbenzo[d]thiazol-6-yl)acetic acid]",EC50,[1],2720 nM
same,EC50,[2],3590 nM
same,EC50,[3],15 nM
"Cc1cc2nc(-c3ccc4c(c3)c(C3CN(C(=O)OC(C)(C)C)C3)nn4C)sc2c(-c2ccc(Cl)cc2)c1[C@H](OC(C)(C)C)C(=O)O [Compound 53, (S)-2-(tert-butoxy)-2-(2-(3-(1-(tert-butoxycarbonyl)azetidin-3-yl)-1-methyl-1H-indazol-5-yl)-7-(4-chlorophenyl)-5-methylbenzo[d]thiazol-6-yl)acetic acid]",EC50,[1],8910 nM
same,EC50,[2],57000 nM
same,EC50,[3],45 nM
"Cc1cc2nc(-c3ccc4c(c3)c(C3CN(C(C)C)C3)nn4C)sc2c(-c2ccc(Cl)cc2)c1[C@H](OC(C)(C)C)C(=O)O [Compound 54, (S)-2-(tert-butoxy)-2-(7-(4-chlorophenyl)-2-(3-(1-isopropylazetidin-3-yl)-1-methyl-1H-indazol-5-yl)-5-methylbenzo[d]thiazol-6-yl)acetic acid]",EC50,[1],1830 nM
same,EC50,[2],3290 nM
same,EC50,[3],6 nM
"Cc1cc2nc(-c3ccc4c(c3)c(C3CN(C(C)C)C3)nn4C)sc2c(-c2ccc(Cl)cc2)c1[C@H](OC1CC1)C(=O)O [Compound 55, (S)-2-(7-(4-chlorophenyl)-2-(3-(1-isopropylazetidin-3-yl)-1-methyl-1H-indazol-5-yl)-5-methylbenzo[d]thiazol-6-yl)-2-cyclopropoxyacetic Acid]",EC50,[1],372 nM
same,EC50,[2],1070 nM
same,EC50,[3],36 nM
"COCCN1CC(c2nn(C)c3ccc(-c4nc5cc(C)c([C@H](OC(C)(C)C)C(=O)O)c(-c6ccc(Cl)cc6)c5s4)cc23)C1 [Compound 56, (S)-2-(tert-butoxy)-2-(7-(4-chlorophenyl)-2-(3-(1-(2-methoxyethyl)azetidin-3-yl)-1-methyl-1H-indazol-5-yl)-5-methylbenzo[d]thiazol-6-yl)acetic acid]",EC50,[1],1390 nM
same,EC50,[2],2070 nM
same,EC50,[3],4 nM
"Cc1cc2nc(-c3ccc4c(c3)c(C3CN(C)C3)nn4C)sc2c(-c2ccc(Cl)cc2)c1[C@H](OC(C)(C)C)C(=O)O [Compound 57, (S)-2-(tert-butoxy)-2-(7-(4-chlorophenyl)-5-methyl-2-(1-methyl-3-(1-methylazetidin-3-yl)-1H-indazol-5-yl)benzo[d]thiazol-6-yl)acetic acid]",EC50,[1],4260 nM
same,EC50,[2],4140 nM
same,EC50,[3],13 nM
"CCN1CC(c2nn(C)c3ccc(-c4nc5cc(C)c([C@H](OC(C)(C)C)C(=O)O)c(-c6ccc(Cl)cc6)c5s4)cc23)C1 [Compound 58, (S)-2-(tert-butoxy)-2-(7-(4-chlorophenyl)-2-(3-(1-ethylazetidin-3-yl)-1-methyl-1H-indazol-5-yl)-5-methylbenzo[d]thiazol-6-yl)acetic acid]",EC50,[1],1930 nM
same,EC50,[2],3090 nM
same,EC50,[3],9 nM
"Cc1cc2nc(-c3ccc4c(c3)c(C3CN(C5COC5)C3)nn4C)sc2c(-c2ccc(Cl)cc2)c1[C@H](OC(C)(C)C)C(=O)O [Compound 59, (S)-2-(tert-butoxy)-2-(7-(4-chlorophenyl)-5-methyl-2-(1-methyl-3-(1-(oxetan-3-yl)azetidin-3-yl)-1H-indazol-5-yl)benzo[d]thiazol-6-yl)acetic acid]",EC50,[1],883 nM
same,EC50,[2],1730 nM
same,EC50,[3],8 nM
"Cc1cc2nc(-c3ccc4c(c3)c(C3CN(C(C)(C)C)C3)nn4C)sc2c(-c2ccc(Cl)cc2)c1[C@H](OC1CC1)C(=O)O [Compound 60, (S)-2-(2-(3-(1-(tert-butyl)azetidin-3-yl)-1-methyl-1H-indazol-5-yl)-7-(4-chlorophenyl)-5-methylbenzo[d]thiazol-6-yl)-2-cyclopropoxyacetic acid]",EC50,[1],477 nM
same,EC50,[2],692 nM
same,EC50,[3],31 nM
"Cc1cc2nc(-c3ccc4c(c3)c(C3CCN(C(=O)OC(C)(C)C)C3)nn4C)sc2c(-c2ccc(Cl)cc2)c1[C@H](OC(C)(C)C)C(=O)O (stereo partly drawn) [Compound 62, (2S)-2-(tert-butoxy)-2-(2-(3-(1-(tert-butoxycarbonyl)pyrrolidin-3-yl)-1-methyl-1H-indazol-5-yl)-7-(4-chlorophenyl)-5-methylbenzo[d]thiazol-6-yl)acetic acid]",EC50,[1],331 nM
same,EC50,[2],514 nM
same,EC50,[3],108 nM
"Cc1cc2nc(-c3ccc4c(c3)c(C3CCN(C)C3)nn4C)sc2c(-c2ccc(Cl)cc2)c1[C@H](OC(C)(C)C)C(=O)O (stereo partly drawn) [Compound 63, (2S)-2-(tert-butoxy)-2-(7-(4-chlorophenyl)-5-methyl-2-(1-methyl-3-(1-methylpyrrolidin-3-yl)-1H-indazol-5-yl)benzo[d]thiazol-6-yl)acetic acid]",EC50,[1],2800 nM
same,EC50,[2],13200 nM
same,EC50,[3],10 nM
"CCN1CCC(c2nn(C)c3ccc(-c4nc5cc(C)c([C@H](OC(C)(C)C)C(=O)O)c(-c6ccc(Cl)cc6)c5s4)cc23)C1 (stereo partly drawn) [Compound 64, (2S)-2-(tert-butoxy)-2-(7-(4-chlorophenyl)-2-(3-(1-ethylpyrrolidin-3-yl)-1-methyl-1H-indazol-5-yl)-5-methylbenzo[d]thiazol-6-yl)acetic acid]",EC50,[1],2840 nM
same,EC50,[2],2620 nM
same,EC50,[3],11 nM
"COCCN1CCC(c2nn(C)c3ccc(-c4nc5cc(C)c([C@H](OC(C)(C)C)C(=O)O)c(-c6ccc(Cl)cc6)c5s4)cc23)C1 (stereo partly drawn) [Compound 65, (2S)-2-(tert-butoxy)-2-(7-(4-chlorophenyl)-2-(3-(1-(2-methoxyethyl)pyrrolidin-3-yl)-1-methyl-1H-indazol-5-yl)-5-methylbenzo[d]thiazol-6-yl)acetic acid]",EC50,[1],752 nM
same,EC50,[2],2120 nM
same,EC50,[3],4 nM
"Cc1cc2nc(-c3ccc4c(c3)c(C3CCN(C5CCC5)C3)nn4C)sc2c(-c2ccc(Cl)cc2)c1[C@H](OC(C)(C)C)C(=O)O (stereo partly drawn) [Compound 71, (2S)-2-(tert-butoxy)-2-(7-(4-chlorophenyl)-2-(3-(1-cyclobutylpyrrolidine-3-yl)-1-methyl-1H-indazol-5-yl)-5-methylbenzo[d]thiazol-6-yl)acetic acid]",EC50,[1],2470 nM
same,EC50,[2],2240 nM
same,EC50,[3],5 nM
"COC(=O)N1CCC(c2nn(C)c3ccc(-c4nc5cc(C)c([C@H](OC(C)(C)C)C(=O)O)c(-c6ccc(Cl)cc6)c5s4)cc23)C1 (stereo partly drawn) [Compound 72, (2S)-2-(tert-butoxy)-2-(7-(4-chlorophenyl)-2-(3-(1-(methoxycarbonyl)pyrrolidin-3-yl)-1-methyl-1H-indazol-5-yl)-5-methylbenzo[d]thiazol-6-yl)acetic acid]",EC50,[1],553 nM
same,EC50,[2],1030 nM
same,EC50,[3],7 nM
